Patent publication US6265617A, “Process for the preparation of 3,5,5-trimethylcyclohexa-3-en-1-one (β-isophorone) by isomerization of 3,5,5- trimethylcyclohexa-2-en-1-one (α-isophorone)” (Degussa-Huls Aktiengesellschaft, priority 1998, dated 2001)

Assay: Catalyst activity in liquid-phase isomerization of α-isophorone to β-isophorone
Conditions: for Rate of formation of β-IP: boiling point, normal pressure, 25 vol.% withdrawal
From the text: The apparatus for carrying out the isomerization consists of a mushroom-shaped heater, an isomerization flask with attached distillation column, through which a primary mixture composed of α-IP and β-IP is withdrawn, and a pump for recirculating the unreacted α-isophorone left after the purifying distillation of β-IP. […] The suspension is heated to boiling point at normal pressure and the quantity of the α-IP delivered by a Telab pump is coordinated with the quantity of the distillate withdrawn.
The primary distillate obtained is conveyed to a distillation column operating at a partial vacuum of 5 mbar to 100 mbar. […] The bottom product consisting of unreacted α-isophorone is returned to the isomerization reactor.
(§1) Technical sodium hydroxide in various concentrations is stirred into α-IP in the apparatus already described above. With the identical continuous procedure (see Example 1), at the top of the isomerization unit a withdrawal rate of 25 vol.% of a primary distillate is established, based on the quantity of isomerization and the reflux ratio.
as §1, with “potassium carbonate” for “sodium hydroxide”
Various catalysts containing alkali-metal cations are compared with regard to their catalytic activity during the isomerization under conditions corresponding to those in the previous Examples.
Various alkali-metal bases and alkaline-earth bases used as catalysts are compared with regard to their catalytic activity during the isomerization under conditions corresponding to those in the previous Examples.
Various catalysts containing alkali-metal cations and the elements are compared with regard to their catalytic activity during the isomerization under conditions corresponding to those in the previous Examples.

[1] = 2 × 10^-2 mol.% catalyst per mol α-IP
[2] = 0.2 mmol K2CO3 for 1 mol α-IP, illustrative calculation
[3] = 2 × 10^-0 mol.% catalyst per mol α-IP
[4] = 2 × 10^-1 mol.% catalyst per mol α-IP

[Ca+2].[OH-].[OH-] [Ca(OH)2]
Rate of formation of β-IP [1]: 41.1 g β-IP/h/liter α-IP

O=C(O)O [K2 CO3, potassium carbonate]
improved space-time yield YR-Z based on the volume of the educt solution used: 80 g β-IP/h per kg α-IP | conversion, β-isophorone per kg of catalyst used and per hour [2]: approximately 422.15 kg | β-IP formation [2]: 74 g β-IP/h/liter | β-IP formation per kg solution [2]: 80.43 g β-IP/h/kg solution | Rate of formation of β-IP [3]: 68.8 g β-IP/h/liter α-IP | Rate of formation of β-IP [4]: 76.4 g β-IP/h/liter α-IP | Rate of formation of β-IP [1]: 73.8 g β-IP/h/liter α-IP

O=C(O)O [KHCO3]
Rate of formation of β-IP [1]: 64.4 g β-IP/h/liter α-IP

[K+].[OH-] [KOH]
Rate of formation of β-IP [1]: 66.9 g β-IP/h/liter α-IP

O=C(O)O [Li2 CO3]
Rate of formation of β-IP [1]: 48.3 g β-IP/h/liter α-IP

[AlH4-].[Li+] [LiAIH4]
Rate of formation of β-IP [1]: 43.3 g β-IP/h/liter α-IP

[BH4-].[Li+] [LiBH4]
Rate of formation of β-IP [1]: 46.1 g β-IP/h/liter α-IP

[Li+].[OH-] [LiOH]
Rate of formation of β-IP [1]: 61.3 g β-IP/h/liter α-IP

[Mg+2].[OH-].[OH-] [Mg(OH)2]
Rate of formation of β-IP [4]: 9.3 g β-IP/h/liter α-IP | Rate of formation of β-IP [1]: 8.2 g β-IP/h/liter α-IP

O=C(O)O [Na2 CO3, sodium carbonate]
calculated yield based on the quantity of catalyst used, Yβ-IP (0.2 mol.% catalyst, continuous operation): 229.7 kg β-IP/h/kgcat. | space-time yield (per hour and quantity of catalyst used) Y (1 mol.% catalyst): 15.357 kg β-IP/h/kg catalyst | space-time yield YR-Z based on α-IP used (1 mol.% catalyst): 0.086 kg β-IP/h/liter | Rate of formation of β-IP [3]: 72 g β-IP/h/liter α-IP | Rate of formation of β-IP [1]: 47.4 g β-IP/h/liter α-IP

CC(=O)O [Na(CH3 CO2)]
Rate of formation of β-IP [1]: 49.2 g β-IP/h/liter α-IP

CO [Na(OMe)]
Rate of formation of β-IP [1]: 46.9 g β-IP/h/liter α-IP

O=C(O)O [NaHCO3]
Rate of formation of β-IP [1]: 55.1 g β-IP/h/liter α-IP

[H-].[Na+] [NaH]
Rate of formation of β-IP [1]: 58.6 g β-IP/h/liter α-IP

[NH2-].[Na+] [NaNH2, sodium amide]
Rate of formation of β-IP [1]: 49.6 g β-IP/h/liter α-IP

[Na+].[OH-] [NaOH, sodium hydroxide]
Rate of formation of β-IP [4]: 79.5 g β-IP/h/liter α-IP | Rate of formation of β-IP [1]: 54.6 g β-IP/h/liter α-IP

[Na] [Na]
Rate of formation of β-IP [1]: 53.7 g β-IP/h/liter α-IP

O=S(=O)([O-])O.[K+] [kHSO4]
Rate of formation of β-IP [1]: 44.7 g β-IP/h/liter α-IP
